# Reference: US11123683B2, “Carbon dioxide absorbent and apparatus of separating and recovering carbon dioxide” (Kabushiki Kaisha Toshiba, priority 2017, dated 2021)
# Assay: pKa of amino group of the heterocyclic ring
# Format: physicochemical
# Conditions: amino group in heterocyclic ring
row,pKa,Compound
1,9.1,CC(=O)CN1CCNCC1 [1-(1-piperazinyl)-2-propanone]
2,4.3,"O=C1CNCC(=O)N1 [2,6-piperazinedione]"
3,6.6,CN1CC(CO)NCC1=O (stereo not drawn) [5-hydroxymethyl-1-methyl-2-piperazinone]
